Assay [1] concerns Candida albicans. The experiment in a line: microbe, parasite or virus in culture. It counts as functional. The conditions noted are these: 0304103, time 48 hrs.
Description: Synergistic antifungal activity against azole-resistant Candida albicans 0304103 assessed as fungal growth inhibition measured after 48 hrs in presence of FLC by CLSI based micro-dilution broth method
Assay [2] deals with Cryptococcus neoformans. The experiment in a line: Antifungal activity against Cryptococcus neoformans H99 assessed as fungal growth inhibition measured after 48 hrs by CLSI based micro-dilution broth method. It counts as functional.
Assay [3] concerns Candida albicans. The experiment in a line: Synergistic antifungal activity against azole-resistant Candida albicans 0304103 assessed as fungal growth inhibition measured after 48 hrs in presence of FLC and SAHA by CLSI based micro-dilution broth method. It counts as functional. (In general: Broth dilution looks for growth in wells or tubes with falling amounts of substance.)
The test system of assay [4] is MDA-MB-231. The experiment in a line: Induction of apoptosis in human MDA-MB-231 cells assessed as late apoptotic cells at 10 uM incubated for 48 hrs by Annexin V-FITC/PI staining based flow cytometry relative to control. The assay is classed as functional. A general note: Flow cytometry measures light scatter and fluorescence of single cells or particles in a stream.

Assay [5] relates to MDA-MB-231. The experiment in a line: Antiproliferative activity against human MDA-MB-231 cells assessed as cell growth inhibition incubated for 24 hrs by CCK-8 assay. The assay is classed as functional, cell-based. The settings on record: MDA-MB-231, 24 h. Background: Formazan colour is commonly taken as a measure of viable cells.
For assay [6], the system named is MDA-MB-231. In words: Induction of apoptosis in human MDA-MB-231 cells assessed as late apoptotic cells at 2.5 uM incubated for 48 hrs by Annexin V-FITC/PI staining based flow cytometry relative to control. The assay is classed as functional.
The subject of assay [7] is Candida albicans. The experiment in a line: Synergistic antifungal activity against azole-resistant Candida albicans 0304103 assessed as fractional inhibitory concentration index measured after 48 hrs in presence of FLC and SAHA by CLSI based micro-dilution broth method. The assay is classed as functional.
Assay [8] relates to Candida albicans. The experiment in a line: Synergistic antifungal activity against azole-resistant Candida albicans 0304103 assessed as fungal growth inhibition measured after 48 hrs in presence of SAHA by CLSI based micro-dilution broth method. It counts as functional.
The subject of assay [9] is MDA-MB-231. In words: Induction of apoptosis in human MDA-MB-231 cells assessed as late apoptotic cells at 5 uM incubated for 48 hrs by Annexin V-FITC/PI staining based flow cytometry relative to control. It counts as functional.
Assay [10] deals with HEL. The experiment in a line: Antiproliferative activity against human HEL cells assessed as cell growth inhibition incubated for 24 hrs in presence of SAHA by CCK-8 assay. The assay is classed as functional, cell-based.
Assay [11] relates to Candida albicans. The experiment in a line: Synergistic antifungal activity against Candida albicans 0304103 infected in ICR mouse assessed as decrease in kidney fungal load at 20 mg/kg, ip for 5 consecutive days. The assay is classed as functional, organism-based. The settings on record: time 5.0 day.
Assay [12] deals with K562. The experiment in a line: Antiproliferative activity against human K562 cells assessed as cell growth inhibition incubated for 24 hrs in presence of SAHA by CCK-8 assay. The assay is classed as functional, cell-based. The settings on record: K562, 24 h.
Assay [13] has as its system MDA-MB-231. In words: Antiproliferative activity against human MDA-MB-231 cells assessed as cell growth inhibition incubated for 24 hrs in presence of SAHA by CCK-8 assay. It counts as functional, cell-based. The settings on record: MDA-MB-231, 24 h.
The test system of assay [14] is HEL. In words: Antiproliferative activity against human HEL cells assessed as cell growth inhibition incubated for 24 hrs by CCK-8 assay. It counts as functional, cell-based.
The test system of assay [15] is MDA-MB-231. In words: Antitumor activity against human MDA-MB-231 cells xenografted in Balb/c nude mouse assessed as tumor growth inhibition at 10 mg/kg, ip qd for 21 consecutive days relative to control. The conditions noted are these: MDA-MB-231, 480 h, time 20 day, read-out: TGI. It counts as functional.
Assay [16] has as its system HL-60. In words: Antiproliferative activity against human HL-60 cells assessed as cell growth inhibition incubated for 24 hrs in presence of SAHA by CCK-8 assay. It counts as functional, cell-based. The settings on record: HL-60, 24 h.
The test system of assay [17] is HL-60. In words: Antiproliferative activity against human HL-60 cells assessed as cell growth inhibition incubated for 24 hrs by CCK-8 assay. The assay is classed as functional, cell-based. The settings on record: HL-60, 24 h.
Assay [18] has as its system Candida albicans. It counts as functional, 0304103. The settings on record: time 48 hrs.
Description: Synergistic antifungal activity against azole-resistant Candida albicans 0304103 assessed as fractional inhibitory concentration index measured after 48 hrs in presence of FLC by CLSI based micro-dilution broth method
For assay [19], the system named is Candida albicans. In words: Synergistic antifungal activity against azole-resistant Candida albicans 0304103 assessed as fungal growth inhibition at 32 ug/ml measured upto 24 hrs in presence of FLC by absorbance based assay. The conditions noted are these: dose 32.0 µg/ml. The assay is classed as functional, organism-based.
Assay [20] deals with Candida albicans. In words: microbe, parasite or virus in culture. It counts as functional. The settings on record: 0304103, time 48 hrs. The source holds these as a separate data set.
Description: Synergistic antifungal activity against azole-resistant Candida albicans 0304103 assessed as fungal growth inhibition measured after 48 hrs by CLSI based micro-dilution broth method
For assay [21], the system named is K562. In words: Antiproliferative activity against human K562 cells assessed as cell growth inhibition incubated for 24 hrs by CCK-8 assay. It counts as functional, cell-based. The conditions noted are these: K562, 24 h.
The subject of assay [22] is Cryptococcus neoformans. The experiment in a line: Antifungal activity against Cryptococcus neoformans H99 assessed as fungal growth inhibition measured after 48 hrs in presence of SAHA by CLSI based micro-dilution broth method. It counts as functional.

≈ marks a conversion by molar mass, not a printed value. Calls of active or inactive are those of the source. The rule behind the calls is not given here.

The term IC50 denotes the concentration that inhibits the measured activity by half.

Regarding `COc1cc2c(cc1-c1c(C)noc1C)[nH]c1nc(C)nc(Nc3cc(C4CC4)nn3C)c12`, the MIC80 against Candida albicans [1] was 16 µg/mL (≈ 36.1 µM); in the assay with Cryptococcus neoformans [2] it was 32 µg/mL (≈ 72.2 µM); in the assay with Candida albicans [3] it was 1 µg/mL; with Candida albicans [8], > 64 µg/mL; in the assay with Candida albicans [20] it was > 64 µg/mL; with Cryptococcus neoformans [22], 64 µg/mL. Further, the Activity in the assay on MDA-MB-231 [4] turned out to be 16.93%; with MDA-MB-231 [6], 8.25%; in the assay on MDA-MB-231 [9], 9.99%. The 50% inhibitory concentration (IC50) in the assay with MDA-MB-231 [5] came out at 3800 nM; in the assay on HEL [10], 400 nM; with K562 [12] it was 0.21 nM; with MDA-MB-231 [13], 1600 nM; in the assay with HEL [14] it was 600 nM; in the assay with HL-60 [16], 1400 nM. Also, the IC50 in the assay on HL-60 [17] is 1500 nM; in the assay on K562 [21], 2300 nM. For the same molecule, the entries for the “fractional inhibitory concentration index (FICI)” value in the assay with Candida albicans [7] and with Candida albicans [18] were 0.26 and 1.2, respectively. Further, the result in the assay with Candida albicans [11] and in the assay on Candida albicans [19] was inactive. Besides, the inhibition in vivo at 10 mg/kg in the assay with MDA-MB-231 [15] came out at 22%.
